Assay results taken from patent publication US10927178B2, “Anti-CXCR4 antibodies and antibody-drug conjugates” (PFIZER INC., priority 2013, dated 2021).

Experiments:
[1] = tested on: Ramos cells; test: Cell-death induction in Ramos cells (Annexin V/PI); assay type: cell-based, human; conditions: positive control, 24 hrs, untreated cells approximately 30%
Protocol: Anti-CXCR4 antibodies were examined for the ability to induce cell-death in the human Non-Hodgkin's Lymphoma Ramos cell line. Cells were cultured to sub-confluency in RPMI 1640 media containing 10% fetal bovine serum and […] Glutamine at 37° C. in a CO2 incubator. Cells were seeded in growth media in a 48-well plates at 2.5×10^6 cells/mL. Anti-CXCR4 antibodies, diluted in PBS to concentrations indicated, were added to the cells and incubated for 24 hrs at 37° C. Cell-death was measured by Annexin V-PE and propidium iodide (PI) fluorescent signal measured in a LSRII Flow Cytometer (BD Biosciences). Total cell-death was determined by adding the Annexin V+/PI+(late) population with the Annexin V+/PI-(early) population.
The Fab is a single chain antibody (monovalent) and contains the immunoglobulin variable regions which are part of the antigen-binding site and the first immunoglogulin constant region. This fragment was obtained by digestion of the 3G10 antibody with the proteolytic enzyme papain. The F(ab′)2 was generated by pepsin digestion to remove most of the Fc region while leaving intact some of the hinge region. F(ab′)2 fragments have two antigen-binding Fab portions linked together by disulfide bonds, and therefore are bivalent.

[2] = tested on: JVM-13-Luc cells; test: Systemic JVM-13-Luc CLL model; assay type: in vivo, mouse; conditions: 10 mg/kg s.c. once a week
Protocol: Anti-tumor activity of CXCR4 antibody was further investigated in a disseminated intravenous Chronic Lymphocytic Leukemia (CLL) model. The human JVM-13 tumor cell line stably transfected to express the luciferase gene was cultured at 37° C. in a 5% CO2 incubator in RPMI 1640 media containing 10% fetal bovine serum and […] Puromycin. The model was established by injecting 1×10^6 JVM-13-Luc cells into female 6-8 week old SCID Beige mice via tail vein. 21 days post-cell implantation mice were assigned into treatment groups (10 animals per group) based on bioluminescence (BLI) reading. […] Rituximab, an anti-CD20 Ab, approved for treatment of CLL patients, was used as positive control. Rituximab was dosed at 10 mg/kg in a solution of sterile PBS once a week, s.c. Tumor burden was assessed using Xenogen IVIS 200 imaging system. Mice were imaged every 7 days in a ventral position and whole body bioluminescence was determined using Xenogen Living Image software. When mice began to show hind limb paralysis or reached other humane endpoints they were euthanized. Both tumor burden (by bioluminescence) and survival were evaluated as endpoints.

CN[C@@H]1C[C@H]2O[C@@](C)([C@@H]1OC)n1c3ccccc3c3c4c(c5c6ccccc6n2c5c31)C(=O)NC4 [Staurosporin, reference compound]
cell-death [1]: approximately 60%

Rituximab: anti-CD20 Ab, approved for treatment of CLL patients, used as positive control [reference compound]
tumor burden (luminescence) compared to isotype control antibody ([2]; from 21 days post-implantation): significantly reduced tumor burden | median survival ([2]; isotype control 32.5 days): 45 days | survival compared to isotype control Ab ([2]; p<0.0001): Significant increase in survival
